The values that follow come from publication PMC7760315 (Biomolecules, 2020).

Assay [1] has as its system GlyT1. To be noted: cited from earlier work.
Assay [2] has as its target T1, GlyRα1/GlyT1 (Homo sapiens, UniProt P48067).
T1 construct: expressed in transfected cells; host or cells: Xenopus laevis oocytes (cRNA co-injection)
T1 sequence (P48067 1-652 isoform P48067-3): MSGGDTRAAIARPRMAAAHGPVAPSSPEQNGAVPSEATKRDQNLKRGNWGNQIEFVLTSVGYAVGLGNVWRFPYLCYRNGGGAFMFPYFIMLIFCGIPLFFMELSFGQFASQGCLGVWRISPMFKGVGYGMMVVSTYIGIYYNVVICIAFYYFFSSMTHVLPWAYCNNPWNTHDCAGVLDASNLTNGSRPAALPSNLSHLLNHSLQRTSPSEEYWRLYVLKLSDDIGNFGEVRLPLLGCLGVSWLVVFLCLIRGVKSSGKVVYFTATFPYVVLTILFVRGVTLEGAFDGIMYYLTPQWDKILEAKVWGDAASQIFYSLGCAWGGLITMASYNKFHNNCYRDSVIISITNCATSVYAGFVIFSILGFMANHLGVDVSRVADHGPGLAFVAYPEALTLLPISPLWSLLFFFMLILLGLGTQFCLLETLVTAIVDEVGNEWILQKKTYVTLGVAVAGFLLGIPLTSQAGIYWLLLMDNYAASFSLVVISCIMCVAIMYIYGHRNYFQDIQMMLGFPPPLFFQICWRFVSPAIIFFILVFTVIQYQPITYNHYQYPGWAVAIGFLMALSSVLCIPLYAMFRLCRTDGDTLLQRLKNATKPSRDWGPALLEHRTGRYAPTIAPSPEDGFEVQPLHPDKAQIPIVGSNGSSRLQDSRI
The assay is described as follows: Two-electrode voltage clamp, oocytes co-expressing GlyRα1/GlyT1. Format: cell-based. As to conditions: 1 μM ALX-5407; 1 mM Na+ buffer. The source says: (§1) Human GlyT1b and GlyT2a WT cDNA were subcloned into the plasmid oocyte transcription vector (pOTV) and human GlyRα1, GlyRα3 and GlyRβ into pGEMHE. GlyR cDNA pGEMHE vectors were provided by Mary Collins at the University of Sydney (Sydney, Australia). Single point mutations were introduced into GlyRα1 using the Q5 site-directed mutagenesis kit (New England Biolabs (Genesearch), Arundel, Australia) with oligonucleotide primers (Merck, Sydney, Australia) containing the desired mutations. The amplified cDNA/pOTV or cDNA/pGEMHE product was then transformed in E. coli cells, and subsequently purified using the PureLink Quick Plasmid Miniprep Kit (Invitrogen by Life Technologies, Löhne, Germany), and sequenced by the Australian Genome Research Facility (Sydney, Australia). The purified plasmid DNA was linearised via the restriction enzyme, SpeI (New England Biolabs (Genesearch), Arundel, Australia) for GlyT1b and GlyT2a (henceforth referred to as GlyT1 and GlyT2 respectively) and NheI (New England Biolabs (Genesearch)) for GlyRα1, GlyRα3 and GlyRβ. Complementary RNAs were synthesised using the mMESAGE mMACHINE T7 kit (Ambion, Austin, TX, USA).
(§2) All work involving the use of animals was performed in accordance with the Australian Code of Practice for the Care and Use of Animals for Scientific Purposes and approved by the University of Sydney Animal Ethics Committee (Approval numbers 2016/970 and 2020/1704). […] The oocytes were then stored in frog Ringer’s solution (96 mM NaCl, 2 mM KCl, 1 mM MgCl2, 1.8 mM CaCl2, 5 mM HEPES, pH 7.5) which was supplemented with 2.5 mM sodium pyruvate, 0.5 mM theophylline, 50 μg/mL gentamicin and […] tetracycline. The oocytes were stored at 18 °C for 3–5 days, until transporter and receptor expression were adequate for measurement using the two-electrode voltage clamp technique.
(§3) GlyT1, GlyT2, GlyRα1, GlyRα3, GlyRα1β and GlyRα3β are electrogenic, allowing activation to be measured via the two-electrode voltage clamp technique. Oocytes were voltage clamped at −60 mV, and whole-cell currents generated by the substrate were recorded with a Geneclamp 500 amplifier (Axon Instruments, Foster City, CA, USA), digitised by a Powerlab 2/20 chart recorder (ADInstruments, Sydney, Australia). LabChart version 8 software (ADInstruments, Sydney, Australia) was used to visualise and process current traces. Recordings were performed in frog Ringer’s solution, except for low Na^+ experiments where Na^+ was replaced with choline. Oocytes were placed in an oval-shaped bath with a volume of 0.3 mL, with laminar flow around the oocyte at a rate of 12 mL min^−1 under gravity feed.
(§4) Varying concentrations of substrate or agonist were applied to cells in ND96.
(§5) Flow of the solution was stopped until the current plateaued, by manually closing a three-way valve on one end of the bath such that the solution in the bath was static and is referred to henceforth as ‘stop-flow’.

The target in assay [3] is T2, GlyRα1/GlyT1 (Homo sapiens, UniProt P23415).
T2 construct: expressed in transfected cells; host or cells: Xenopus laevis oocytes (cRNA co-injection)
T2 sequence (P23415 29-457): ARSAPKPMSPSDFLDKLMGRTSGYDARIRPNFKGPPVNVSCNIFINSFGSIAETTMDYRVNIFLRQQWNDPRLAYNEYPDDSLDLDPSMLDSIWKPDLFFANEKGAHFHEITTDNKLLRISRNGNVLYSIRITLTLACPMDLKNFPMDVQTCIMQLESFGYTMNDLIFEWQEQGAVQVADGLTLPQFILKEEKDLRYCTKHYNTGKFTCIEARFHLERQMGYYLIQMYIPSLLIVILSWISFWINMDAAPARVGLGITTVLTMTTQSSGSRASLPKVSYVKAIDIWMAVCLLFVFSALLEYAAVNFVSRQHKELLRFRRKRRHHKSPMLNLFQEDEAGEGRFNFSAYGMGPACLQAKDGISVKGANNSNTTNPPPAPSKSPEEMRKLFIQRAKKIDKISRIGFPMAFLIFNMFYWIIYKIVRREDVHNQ
The description is as above. Format: cell-based. To be noted: 1 µM inhibitor; fast-flow.
Source text: as §1, §2, §3, §4, §5

The subject of assay [4] is GlyRα1/GlyT2. Briefly: Two-electrode voltage clamp, oocytes co-expressing GlyRα1/GlyT2. To be noted: for GlyT contribution to overall peak current (current in presence of strychnine as % of current without) / GlyT contribution to stopped flow current (current in presence of strychnine as % of current without): 1 µM strychnine; for GlyT contribution to overall peak current (current in presence of strychnine as % of current without): fast-flow peak; for GlyT contribution to stopped flow current (current in presence of strychnine as % of current without): stop-flow. Format: cell-based, human.
Source text: as §1, §2, §3
Varying concentrations of substrate or agonist were applied to cells in ND96. […]

Assay [5] deals with GlyRα1/GlyT1. The assay is described as follows: Two-electrode voltage clamp, oocytes co-expressing GlyRα1/GlyT1. Format: cell-based, human. To be noted: 1 µM strychnine; for GlyT contribution to overall peak current (current in presence of strychnine as % of current without): fast-flow peak; for GlyT contribution to stopped flow current (current in presence of strychnine as % of current without): stop-flow.
Source text: as §1, §2, §3, §4, §5

In assay [6] the test system is GlyRα1. To be noted: % stimulation of glycine EC5 caused by 1 µM lipid; cited from earlier work.
The target of assay [7] is T3, GlyRα1 (Homo sapiens, UniProt P23415).
T3 construct: expressed in transfected cells; host or cells: Xenopus laevis oocytes (cRNA injection)
T3 sequence (P23415 29-457): T2 sequence (P23415 29-457)
Briefly: Two-electrode voltage clamp, Xenopus laevis oocytes expressing GlyRα1 alone. The format is cell-based.
Source text: as §1, §2, §3, §4, §5

Assay [8] deals with GlyT2. As to conditions: cited from earlier work.
Assay [9] concerns the target GlyRα3β/GlyT2 (Homo sapiens, UniProt O75311+P48167). To be noted: read-out: Fast-Flow Glycine EC50.
Source text: (§6) Human GlyT1b and GlyT2a WT cDNA were subcloned into the plasmid oocyte transcription vector (pOTV) and human GlyRα1, GlyRα3 and GlyRβ into pGEMHE. […] Single point mutations were introduced into GlyRα1 using the Q5 site-directed mutagenesis kit (New England Biolabs (Genesearch), Arundel, Australia) with oligonucleotide primers (Merck, Sydney, Australia) containing the desired mutations. […] The purified plasmid DNA was linearised via the restriction enzyme, SpeI (New England Biolabs (Genesearch), Arundel, Australia) for GlyT1b and GlyT2a (henceforth referred to as GlyT1 and GlyT2 respectively) and NheI (New England Biolabs (Genesearch)) for GlyRα1, GlyRα3 and GlyRβ. Complementary RNAs were synthesised using the mMESAGE mMACHINE T7 kit (Ambion, Austin, TX, USA). […]
(§7) GlyT1, GlyT2, GlyRα1, GlyRα3, GlyRα1β and GlyRα3β are electrogenic, allowing activation to be measured via the two-electrode voltage clamp technique. Oocytes were voltage clamped at −60 mV, and whole-cell currents generated by the substrate were recorded with a Geneclamp 500 amplifier (Axon Instruments, Foster City, CA, USA), digitised by a Powerlab 2/20 chart recorder (ADInstruments, Sydney, Australia). […]
The target of assay [10] is GlyRα3β/GlyT1 (Homo sapiens, UniProt O75311+P48167). As to conditions: read-out: Fast-Flow Glycine EC50.
Source text: as §6, §7
Assay [11] concerns GlyRα1-mCherry. To be noted: read-out: Glycine EC50; tagged receptor alone.
Procedure: (§8) The oocytes were then stored in frog Ringer’s solution (96 mM NaCl, 2 mM KCl, 1 mM MgCl2, 1.8 mM CaCl2, 5 mM HEPES, pH 7.5) which was supplemented with 2.5 mM sodium pyruvate, 0.5 mM theophylline, 50 μg/mL gentamicin and 100 μM mL^−1 tetracycline. The oocytes were stored at 18 °C for 3–5 days, until transporter and receptor expression were adequate for measurement using the two-electrode voltage clamp technique.
For assay [12], the system named is GlyRα1. To be noted: cited from earlier work.
Assay [13] relates to GlyT2-GFP. As to conditions: read-out: Glycine EC50; tagged transporter alone.
Procedure: as §8
For assay [14], the target named is GlyT2 (Homo sapiens, UniProt Q9Y345). To be noted: read-out: glycine EC50 (transport current); GlyT2 expressed alone.
Source text: as §1, §2, §3, §4

Assay [15] addresses GlyRα3 (Homo sapiens, UniProt O75311). As to conditions: read-out: Fast-Flow Glycine EC50.
Source text: as §1, §2, §3, §4

The target in assay [16] is GlyRα3/GlyT2 (Homo sapiens, UniProt O75311). To be noted: read-out: Fast-Flow Glycine EC50.
Source text: as §1, §2, §3, §4

For assay [17], the target named is GlyT1 (Homo sapiens, UniProt P48067). As to conditions: read-out: glycine EC50 (transport current); GlyT1 expressed alone.
Source text: as §1, §2, §3, §4

Assay [18] concerns the target GlyRα3/GlyT1 (Homo sapiens, UniProt O75311). As to conditions: read-out: Fast-Flow Glycine EC50.
Source text: as §1, §2, §3, §4

Where “and” joins values, the source holds several entries; their conditions need not be identical. Equal values may be shown once. Read-outs that look alike come from different tables or passages of the source.

GlyT2 (Homo sapiens, UniProt Q9Y345), sequence (Q9Y345 whole entry): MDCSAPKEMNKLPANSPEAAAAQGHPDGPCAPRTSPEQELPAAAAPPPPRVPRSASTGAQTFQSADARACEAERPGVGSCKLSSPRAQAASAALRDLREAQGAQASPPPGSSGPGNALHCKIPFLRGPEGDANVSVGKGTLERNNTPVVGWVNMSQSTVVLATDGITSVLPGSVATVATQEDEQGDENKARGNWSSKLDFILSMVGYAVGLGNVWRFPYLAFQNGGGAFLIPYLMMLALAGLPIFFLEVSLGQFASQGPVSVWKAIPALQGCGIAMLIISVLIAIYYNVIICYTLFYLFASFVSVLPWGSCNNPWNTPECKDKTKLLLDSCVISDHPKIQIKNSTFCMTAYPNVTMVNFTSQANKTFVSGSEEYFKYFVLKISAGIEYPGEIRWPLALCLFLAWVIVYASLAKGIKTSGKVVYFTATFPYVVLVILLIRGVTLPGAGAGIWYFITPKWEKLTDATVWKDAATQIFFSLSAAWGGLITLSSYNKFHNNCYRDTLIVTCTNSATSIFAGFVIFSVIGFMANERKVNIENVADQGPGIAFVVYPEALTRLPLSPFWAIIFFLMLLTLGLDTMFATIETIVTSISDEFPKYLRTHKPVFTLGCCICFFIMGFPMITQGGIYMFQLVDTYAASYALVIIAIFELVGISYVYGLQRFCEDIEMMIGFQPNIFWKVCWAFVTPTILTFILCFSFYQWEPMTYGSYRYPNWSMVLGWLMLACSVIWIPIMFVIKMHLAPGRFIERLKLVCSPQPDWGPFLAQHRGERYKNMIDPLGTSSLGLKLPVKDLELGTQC
GlyRα3/GlyT1, sequence (O75311 34-464): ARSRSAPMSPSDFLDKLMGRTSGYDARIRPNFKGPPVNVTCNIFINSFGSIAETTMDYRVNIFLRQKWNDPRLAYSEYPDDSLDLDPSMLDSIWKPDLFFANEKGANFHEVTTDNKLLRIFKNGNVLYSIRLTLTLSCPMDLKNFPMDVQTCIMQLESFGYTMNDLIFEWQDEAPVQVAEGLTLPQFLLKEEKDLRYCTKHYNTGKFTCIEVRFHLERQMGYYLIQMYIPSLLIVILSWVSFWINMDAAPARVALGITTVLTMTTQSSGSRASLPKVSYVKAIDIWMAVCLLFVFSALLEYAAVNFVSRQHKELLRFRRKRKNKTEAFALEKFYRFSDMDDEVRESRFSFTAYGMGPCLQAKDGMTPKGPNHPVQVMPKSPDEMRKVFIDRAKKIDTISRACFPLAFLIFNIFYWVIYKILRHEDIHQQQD
GlyRα3/GlyT2, sequence (O75311 34-464): as above
GlyRα3β/GlyT2, sequence (O75311 34-464): as above
GlyRα3β/GlyT2, sequence (P48167 23-497): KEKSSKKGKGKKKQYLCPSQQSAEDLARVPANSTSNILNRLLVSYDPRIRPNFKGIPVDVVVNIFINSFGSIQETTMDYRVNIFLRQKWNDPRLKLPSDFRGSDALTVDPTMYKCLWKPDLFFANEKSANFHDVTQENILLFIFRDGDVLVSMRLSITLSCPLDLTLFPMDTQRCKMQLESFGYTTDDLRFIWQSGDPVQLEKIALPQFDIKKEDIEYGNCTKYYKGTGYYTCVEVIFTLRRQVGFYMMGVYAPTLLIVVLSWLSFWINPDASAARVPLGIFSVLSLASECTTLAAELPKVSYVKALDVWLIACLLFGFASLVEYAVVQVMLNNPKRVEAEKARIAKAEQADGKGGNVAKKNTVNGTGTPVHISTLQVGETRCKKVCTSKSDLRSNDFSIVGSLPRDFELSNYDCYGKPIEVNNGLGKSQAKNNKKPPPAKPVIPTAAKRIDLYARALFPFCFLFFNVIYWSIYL
GlyRα3, sequence (O75311 34-464): as the sequence (O75311 34-464) above
GlyRα3β/GlyT1, sequence (O75311 34-464): as above
GlyRα3β/GlyT1, sequence (P48167 23-497): as the sequence (P48167 23-497) above

As to `CN(CC[C@@H](Oc1ccc(-c2ccccc2)cc1)c1ccc(F)cc1)CC(=O)O` [ALX-5407], the concentration for half-maximal inhibition (IC50) in [1] was 0.003 µM. Also, in assay [2], the “stopped flow increase in current amplitude (reverse glycine transport / efflux)” value is on record as “prevents”. The “nH of glycine dose-response in the presence of GlyT inhibitor” value in assay [3] came to 2.0 ± 0.2 ns.
As to `O=C1C[C@@H]2OCC=C3CN4CC[C@]56c7ccccc7N1[C@H]5[C@H]2[C@H]3C[C@H]46` [strychnine], the “GlyT contribution to overall peak current (current in presence of strychnine as % of current without)” value is 16.6 ± 3.7% in assay [4] (10 µM glycine), 1.7 ± 0.4% in assay [4] (30 µM glycine), 53.2 ± 6.9% in [5] (10 µM glycine) and 14.4 ± 1.8% in assay [5] (30 µM glycine). In addition, the “GlyT contribution to stopped flow current (current in presence of strychnine as % of current without)” value was 16.2 ± 2.1% in assay [4] (10 µM glycine), 1.6 ± 0.4% in assay [4] (30 µM glycine), 61.5 ± 13.9% in assay [5] (10 µM glycine) and 5.2 ± 1.3% in assay [5] (30 µM glycine).
For the molecule `CCCCCC/C=C\CCCCCCCCCC(=O)NCC(=O)O` [C18-cis-ω7-glycine], the “GlyRα1 Potentiation at EC5 (%)” value in assay [6] is given as 184.7 ± 41.3 (5) %. In addition, the “nH of glycine dose-response in the presence of lipid” value in [7] (1 µM lipid, fast-flow) was 2.8 ± 0.3 ns. For the same molecule, in assay [8] (1 µM lipid, inhibition of glycine transport), the “GlyT2 Activity: % Inhibition (1 µM)” value is reported as 10.5 ± 0.02%. Moreover, the half-inhibitory concentration (IC50) in assay [8] (inhibition of glycine transport by GlyT2) is greater than 10 µM.
Take `NCC(=O)O` [glycine]: the concentration giving a half-maximal response (EC50) in [4] (read-out: Fast-Flow Glycine EC50) was 30.9 µM and 41.6 µM and 34.1 µM and 27.9 µM and 27.3 µM; in assay [4] (read-out: Glycine EC50), 23 µM; in assay [4] (read-out: Stop-Flow Glycine EC50) it was 83.1 µM; in [9] it was 224 µM; in assay [10], 220 µM; in assay [11], 15.7 µM. The concentration giving a half-maximal response (EC50) in assay [12] (read-out: glycine EC50, ref 51) is 24 µM; in assay [12] (read-out: glycine EC50, ref 52), 42 µM; in [12] (read-out: glycine EC50 values in oocytes, variable with maximal current), 20 to 280 µM; in assay [13], 28.1 µM; in assay [14], 21.8 µM and ~30 µM; in [15], 64.8 µM. In addition, the values for the concentration giving a half-maximal response (EC50) in [16], in assay [17] and in assay [18] were 160 µM, roughly 35 µM and 154 µM, respectively. Besides, the “Peak Current” value in assay [7] was found to be 740.6 ± 105.9 nA.
